According to PubChem BioAssay (NCI):
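48-hour exposure; five concentrations; linearly interpolated endpoints. The concentration for full growth arrest is given as TGI.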

Legend:
Experiment in all cases: DTP human tumour cell line panel, 48 h
CAKI-1 renal = test system: CAKI-1 renal
DMS 273 small cell lung = test system: DMS 273 small cell lung
NCI-H226 lung = test system: NCI-H226 lung
OVCAR-3 ovarian = test system: OVCAR-3 ovarian
SK-MEL-28 melanoma = test system: SK-MEL-28 melanoma
SNB-19 CNS = test system: SNB-19 CNS
XF 498 CNS = test system: XF 498 CNS
786-0 renal = test system: 786-0 renal
ACHN renal = test system: ACHN renal
LXFL 529 NSCLC = test system: LXFL 529 NSCLC
SR leukemia = test system: SR leukemia
PC-3 prostate = test system: PC-3 prostate

Measured: TGI

NC(CSCSCC(N)C(=O)O)C(=O)O (stereo unspecified)
> 225 µM: CAKI-1 renal | DMS 273 small cell lung | NCI-H226 lung | OVCAR-3 ovarian | SK-MEL-28 melanoma | SNB-19 CNS | XF 498 CNS

C/C(CCN(C)C)=N\OC(=O)c1ccccc1
not listed: XF 498 CNS | PC-3 prostate
> 100 µM: all other assays above

Cn1c(=O)n(C2(C)CSC2)c2ccccc21
not listed: OVCAR-3 ovarian | PC-3 prostate
> 100 µM: all other assays above

CC(C)(C)CI
89.1 µM: SNB-19 CNS
34.8 µM: DMS 273 small cell lung
> 100 µM: LXFL 529 NSCLC | SK-MEL-28 melanoma
58.5 µM: ACHN renal
35.4 µM: OVCAR-3 ovarian
34.9 µM: XF 498 CNS
76.7 µM: SR leukemia

Cc1ccc(S(=O)(=O)Nn2c(S)c(C#N)c(-c3ccc(Cl)cc3)c(C#N)c2=O)cc1
66.5 µM: NCI-H226 lung
not listed: DMS 273 small cell lung | XF 498 CNS | LXFL 529 NSCLC
> 100 µM: all other assays above

CC#CC#C/C=C1\C=CC2(OC=CC2O)O1 (stereo unspecified)
> 20 µM: OVCAR-3 ovarian
not listed: PC-3 prostate
> 23.3 µM: all other assays above

Cc1cc(=O)oc2c(C)c3oc(CBr)cc3cc12
32 µM: 786-0 renal
35 µM: PC-3 prostate
34 µM: NCI-H226 lung
31.8 µM: CAKI-1 renal
29.8 µM: ACHN renal
> 100 µM: OVCAR-3 ovarian | SNB-19 CNS | SR leukemia
43.6 µM: SK-MEL-28 melanoma

S=C(S)NCCN1CCNCC1
63.8 µM: OVCAR-3 ovarian
77 µM: 786-0 renal
not listed: DMS 273 small cell lung | XF 498 CNS | LXFL 529 NSCLC
> 100 µM: all other assays above

Cn1c(=O)cc(Nc2ccc(N)cc2)[nH]c1=O
not listed: DMS 273 small cell lung | XF 498 CNS | LXFL 529 NSCLC
> 100 µM: all other assays above

CN1CCc2c(sc3ncn(Nc4ccc(F)cc4)c(=N)c23)C1
not listed: DMS 273 small cell lung | XF 498 CNS | LXFL 529 NSCLC
> 100 µM: all other assays above

CC/C=C\C=C/C(=O)N/C=C/CCC
not listed: DMS 273 small cell lung | XF 498 CNS | LXFL 529 NSCLC
> 100 µM: all other assays above

CC(C)C(CCOS(=O)(=O)O)CCC(C)[C@H]1[C@@H](O)C(O)C2[C@]3(O)C[C@@H](O)C4(O)C[C@@H](O)CC[C@]4(C)C3CC[C@@]21C (stereo partly specified)
not listed: PC-3 prostate
> 100 µM: all other assays above

COc1cc(C(c2ccc3c(c2)OCO3)C2SCCCS2)cc(OC)c1OC (stereo unspecified)
> 100 µM: ACHN renal | PC-3 prostate | SK-MEL-28 melanoma
5.41 µM: SNB-19 CNS
20.1 µM: CAKI-1 renal
9.68 µM: 786-0 renal
2.07 µM: SR leukemia
27.4 µM: OVCAR-3 ovarian
7.11 µM: NCI-H226 lung

O=C(O)c1ccc(Nc2cnc3cc(C(F)(F)F)ccc3n2)cc1
not listed: DMS 273 small cell lung | XF 498 CNS | LXFL 529 NSCLC
> 100 µM: all other assays above

CN1CCN(c2n[nH]c(=O)c3c2nnn3C2CCCCC2)CC1
not listed: DMS 273 small cell lung | XF 498 CNS | LXFL 529 NSCLC
> 100 µM: all other assays above

CC(C)C(/C=C/c1ccc(Cl)cc1)=N\NC(=O)N/N=C(/C=C/c1ccc(Cl)cc1)C(C)C
33.5 µM: 786-0 renal
87.3 µM: ACHN renal
54.9 µM: NCI-H226 lung
38.8 µM: SNB-19 CNS
> 100 µM: PC-3 prostate | SK-MEL-28 melanoma
35.8 µM: OVCAR-3 ovarian
80.7 µM: SR leukemia
35.6 µM: CAKI-1 renal

Cc1cccc(N=N/C(=N\NC(=O)c2cc(Cl)ccc2O)c2ccc(N(CCC#N)CCC#N)cc2C)c1
49.6 µM: OVCAR-3 ovarian
52.4 µM: SR leukemia
not listed: DMS 273 small cell lung | XF 498 CNS | LXFL 529 NSCLC
> 100 µM: all other assays above
